The values that follow come from US20260001928A1 (CORTERIA PHARMACEUTICALS, priority 2022, published 2026).

As usually defined, the EC50 is the concentration at which the effect is half-maximal. High values mean a need for much substance, low ones an effect from little substance.

Each structure is given as a SMILES string. *1 amine or outer side, *2 acyl side, *3 side chain or, on linkers, in order; H or OH if unused. Where a SMILES comes first, the peptide text is derived from it. Side-chain parts run from the residue outwards. [ ]: non-standard residue; d: D form. The star is where a group is joined. C20 diacid = O=C(O)CCCCCCCCCCCCCCCCCCC(=O)*; γGlu = O=C(O)[C@H](CCC(=O)[*:2])N[*:1]; Myristoyl = CCCCCCCCCCCCCC(=O)*; Lauroyl = CCCCCCCCCCCC(=O)*; Api = NC1(C(=O)O)CCNCC1; Pentanoyl = CCCCC(=O)*; Aib = CC(C)(N)C(=O)O

One experiment has as its target T1, human CRF2a receptor (Homo sapiens, UniProt Q13324).
T1 construct: expressed in transfected cells; host or cells: TeloHEAC cells
T1 sequence (Q13324 1-411): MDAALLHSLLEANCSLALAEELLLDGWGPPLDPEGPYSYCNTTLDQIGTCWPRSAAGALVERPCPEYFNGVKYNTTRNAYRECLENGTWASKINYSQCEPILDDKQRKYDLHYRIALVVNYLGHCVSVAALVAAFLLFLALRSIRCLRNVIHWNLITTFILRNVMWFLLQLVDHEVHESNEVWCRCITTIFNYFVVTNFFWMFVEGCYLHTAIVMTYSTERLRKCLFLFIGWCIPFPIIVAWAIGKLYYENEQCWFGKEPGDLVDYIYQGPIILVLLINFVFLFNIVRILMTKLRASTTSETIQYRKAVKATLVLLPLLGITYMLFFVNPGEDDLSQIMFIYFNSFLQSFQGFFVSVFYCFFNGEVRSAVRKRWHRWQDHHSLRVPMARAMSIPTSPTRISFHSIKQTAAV
Put plainly: Activity at human CRF2a receptor, cAMP functional assay in TeloHEAC cells. The conditions noted are these: TeloHEAC cells stably expressing human CRF2a receptor, relative to urocortin 2 (100 nM = 100%). The experiment is classed as cell-based. In a few lines: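 TeloHEAC cells stably expressing human CRF2a (10000 cells/well, suspended in HBSS/20 mM HEPES with 2 mM IBMX) were exposed to compounds for 30 min at 37 °C. cAMP was read as the 665/620 nm fluorescence ratio after 1 h at room temperature. EC50 was derived relative to 100 nM urocortin 2, set as 100%.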

The target of a further experiment is T2, CFR1R receptor (Homo sapiens, UniProt P34998).
T2 construct: host or cells: CHO-K1 (clone 2)
T2 sequence (P34998 24-415): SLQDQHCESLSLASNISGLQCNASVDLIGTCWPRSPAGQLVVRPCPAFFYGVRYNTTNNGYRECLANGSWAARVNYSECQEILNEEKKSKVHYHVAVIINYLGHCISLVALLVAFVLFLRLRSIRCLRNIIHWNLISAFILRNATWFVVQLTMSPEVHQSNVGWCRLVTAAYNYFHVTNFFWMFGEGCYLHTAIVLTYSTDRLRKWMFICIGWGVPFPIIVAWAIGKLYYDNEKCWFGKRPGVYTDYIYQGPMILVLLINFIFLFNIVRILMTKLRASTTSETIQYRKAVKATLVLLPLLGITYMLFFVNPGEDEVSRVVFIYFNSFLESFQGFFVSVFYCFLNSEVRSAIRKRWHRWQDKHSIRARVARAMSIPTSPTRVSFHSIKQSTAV
Put plainly: Activity at anti-target CFR1R receptor, cAMP assay in CRF1R-overexpression CHO-K1 cells. The experiment is classed as cell-based. The conditions noted are these: 100% = Sauvagine at 100 nM. The method, boiled down: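 Clone 2; cryopreserved stocks (10% DMSO); 4000 cells/well final; 100% activation = Sauvagine 100 nM; otherwise as TeloHAEC protocol.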
Background: cAMP levels reflect the balance of adenylyl cyclase and phosphodiesterase activity.

`CCCCC(=O)N[C@H](C(=O)N[C@@H](CC(C)C)C(=O)N[C@@H](CO)C(=O)N[C@@H](CC(C)C)C(=O)N[C@@H](CC(=O)O)C(=O)N[C@@H](C(=O)N1CCC[C@H]1C(=O)N[C@H](C(=O)N[C@@H](CCCCN)C(=O)N[C@@H](CC(C)C)C(=O)N[C@@H](CCCCNC(=O)CC[C@H](NC(=O)CCCCCCCCCCCCCCCCCCC(=O)O)C(=O)O)C(=O)N[C@@H](CCCCN)C(=O)N[C@H](C(=O)N[C@@H](CC(C)C)C(=O)N[C@@H](CC(C)C)C(=O)N[C@@H](CCC(=O)O)C(=O)N[C@@H](CCC(N)=O)C(=O)N[C@@H](CCC(=O)O)C(=O)N[C@@H](C)C(=O)N[C@@H](CCC(N)=O)C(=O)N[C@@H](CCCCN)C(=O)N[C@@H](CCCCN)C(=O)N[C@@H](CCC(N)=O)C(=O)N[C@@H](CCCNC(=N)N)C(=O)N[C@@H](CCC(=O)O)C(=O)N[C@@H](CCC(N)=O)C(=O)N[C@@H](C)C(=O)N[C@@H](CCC(=O)O)C(=O)N[C@H](C(=O)N[C@@H](CC(N)=O)C(=O)NC(C)(C)C(=O)N[C@@H](CCC(N)=O)C(=O)N[C@H](C(=O)N[C@@H](CC(C)C)C(=O)N[C@@H](C)C(=O)N[C@@H](CCC(N)=O)C(=O)N[C@H](C(N)=O)C(C)C)[C@@H](C)CC)[C@@H](C)O)[C@@H](C)CC)[C@@H](C)CC)C(C)C)C(C)C` [compound 221] (Pentanoyl-VLSLD[dV]PIKLK([γGlu-C20 diacid])KILLEQEAQKKQREQAETN[Aib]QILAQV-NH2) registered an EC50 at human CRF2a receptor of 0.18 nM. The “Emax (% I)” value at CFR1R receptor was 79 % I.

`CCCCCCCCCCCC(=O)N[C@H](C(=O)N[C@@H](CC(C)C)C(=O)N[C@@H](CO)C(=O)N[C@@H](CC(C)C)C(=O)N[C@@H](CC(=O)O)C(=O)N[C@@H](C(=O)N1CCC[C@H]1C(=O)N[C@H](C(=O)N[C@@H](CCCCN)C(=O)N[C@@H](CC(C)C)C(=O)N[C@@H](CCCCNC(=O)CC[C@H](NC(=O)CCCCCCCCCCCCCCCCCCC(=O)O)C(=O)O)C(=O)N[C@@H](CCCCN)C(=O)N[C@H](C(=O)N[C@@H](CC(C)C)C(=O)N[C@@H](CC(C)C)C(=O)N[C@@H](CCC(=O)O)C(=O)N[C@@H](CCC(N)=O)C(=O)N[C@@H](CCC(=O)O)C(=O)N[C@@H](CCCCN)C(=O)N[C@@H](CCC(N)=O)C(=O)N[C@@H](CCCCN)C(=O)N[C@@H](CCCCN)C(=O)N[C@@H](CCC(N)=O)C(=O)N[C@@H](CCCNC(=N)N)C(=O)N[C@@H](CCC(=O)O)C(=O)N[C@@H](CCC(N)=O)C(=O)N[C@@H](C)C(=O)N[C@@H](CCC(=O)O)C(=O)N[C@H](C(=O)N[C@@H](CC(N)=O)C(=O)NC(C)(C)C(=O)N[C@@H](CCC(N)=O)C(=O)N[C@H](C(=O)N[C@@H](CC(C)C)C(=O)N[C@@H](C)C(=O)N[C@@H](CCC(N)=O)C(=O)N[C@H](C(N)=O)C(C)C)[C@@H](C)CC)[C@@H](C)O)[C@@H](C)CC)[C@@H](C)CC)C(C)C)C(C)C` [compound 224] (Lauroyl-VLSLD[dV]PIKLK([γGlu-C20 diacid])KILLEQEKQKKQREQAETN[Aib]QILAQV-NH2) gave an EC50 on human CRF2a receptor of 0.07 nM. In addition, the “Emax (% I)” value at CFR1R receptor is listed as 66 % I.

`CCCCCCCCCCCCCC(=O)N[C@H](C(=O)N[C@@H](CC(C)C)C(=O)N[C@@H](CO)C(=O)N[C@@H](CC(C)C)C(=O)N[C@@H](CC(=O)O)C(=O)N[C@@H](C(=O)N1CCC[C@H]1C(=O)N[C@H](C(=O)N[C@@H](CCCCN)C(=O)N[C@@H](CC(C)C)C(=O)N[C@@H](CCCCNC(=O)CC[C@H](NC(=O)CCCCCCCCCCCCCCCCCCC(=O)O)C(=O)O)C(=O)N[C@@H](CCCCN)C(=O)N[C@H](C(=O)N[C@@H](CC(C)C)C(=O)N[C@@H](CC(C)C)C(=O)N[C@@H](CCC(=O)O)C(=O)N[C@@H](CCC(N)=O)C(=O)N[C@@H](CCC(=O)O)C(=O)N[C@@H](CCCCN)C(=O)N[C@@H](CCC(N)=O)C(=O)N[C@@H](CCCCN)C(=O)N[C@@H](CCCCN)C(=O)N[C@@H](CCC(N)=O)C(=O)N[C@@H](CCCNC(=N)N)C(=O)N[C@@H](CCC(=O)O)C(=O)N[C@@H](CCC(N)=O)C(=O)N[C@@H](C)C(=O)N[C@@H](CCC(=O)O)C(=O)N[C@H](C(=O)N[C@@H](CC(N)=O)C(=O)NC(C)(C)C(=O)N[C@@H](CCC(N)=O)C(=O)N[C@H](C(=O)N[C@@H](CC(C)C)C(=O)N[C@@H](C)C(=O)N[C@@H](CCC(N)=O)C(=O)N[C@H](C(N)=O)C(C)C)[C@@H](C)CC)[C@@H](C)O)[C@@H](C)CC)[C@@H](C)CC)C(C)C)C(C)C` [compound 225] (Myristoyl-VLSLD[dV]PIKLK([γGlu-C20 diacid])KILLEQEKQKKQREQAETN[Aib]QILAQV-NH2): the EC50 on human CRF2a receptor is 0.09 nM. Further, the “Emax (% I)” value on CFR1R receptor came to 70 % I.

Consider `CC[C@H](C)[C@H](NC(C)=O)C(=O)N[C@H](C(=O)N[C@@H](CC(C)C)C(=O)N[C@@H](CO)C(=O)N[C@@H](CC(C)C)C(=O)N[C@@H](CC(=O)O)C(=O)N[C@@H](C(=O)N1CCC[C@H]1C(=O)N[C@H](C(=O)NCC(=O)N[C@@H](CC(C)C)C(=O)N[C@@H](CCCCNC(=O)CC[C@H](NC(=O)CCCCCCCCCCCCCCCCCCC(=O)O)C(=O)O)C(=O)N[C@@H](CCCCN)C(=O)N[C@H](C(=O)N[C@@H](CC(C)C)C(=O)N[C@@H](CC(C)C)C(=O)N[C@@H](CCC(=O)O)C(=O)N[C@@H](CCC(N)=O)C(=O)N[C@@H](CCC(=O)O)C(=O)N[C@@H](CCCCN)C(=O)N[C@@H](CCC(N)=O)C(=O)N[C@@H](CCCCN)C(=O)N[C@@H](CCCCN)C(=O)N[C@@H](CCC(N)=O)C(=O)N[C@@H](CCCNC(=N)N)C(=O)N[C@@H](CCC(=O)O)C(=O)N[C@@H](CCC(N)=O)C(=O)N[C@@H](C)C(=O)N[C@@H](CCC(=O)O)C(=O)N[C@H](C(=O)N[C@@H](CC(N)=O)C(=O)NC(C)(C)C(=O)N[C@@H](CCC(N)=O)C(=O)N[C@H](C(=O)N[C@@H](CC(C)C)C(=O)N[C@@H](C)C(=O)N[C@@H](CCC(N)=O)C(=O)N[C@H](C(N)=O)C(C)C)[C@@H](C)CC)[C@@H](C)O)[C@@H](C)CC)[C@@H](C)CC)C(C)C)C(C)C` [compound 226] (Ac-IVLSLD[dV]PIGLK([γGlu-C20 diacid])KILLEQEKQKKQREQAETN[Aib]QILAQV-NH2), for which the EC50 amounted to 0.18 nM at human CRF2a receptor and 42.2 nM on CFR1R receptor (cAMP). For the same compound, the “Emax (% I)” value at CFR1R receptor was 82 % I.

For the compound `CC[C@H](C)[C@H](NC(C)=O)C(=O)N[C@H](C(=O)N[C@@H](CC(C)C)C(=O)N[C@@H](CO)C(=O)N[C@@H](CC(C)C)C(=O)N[C@@H](CC(=O)O)C(=O)N[C@@H](C(=O)N1CCC[C@H]1C(=O)N[C@H](C(=O)NCC(=O)N[C@@H](CC(C)C)C(=O)N[C@@H](CCCCNC(=O)CC[C@H](NC(=O)CCCCCCCCCCCCCCCCCCC(=O)O)C(=O)O)C(=O)N[C@@H](CCCCN)C(=O)N[C@H](C(=O)N[C@@H](CC(C)C)C(=O)N[C@@H](CC(C)C)C(=O)N[C@@H](CCC(=O)O)C(=O)N[C@@H](CCC(N)=O)C(=O)N[C@@H](CCC(=O)O)C(=O)N[C@@H](CCCCN)C(=O)N[C@@H](CCC(N)=O)C(=O)N[C@@H](CCCCN)C(=O)N[C@@H](CCCCN)C(=O)N[C@@H](CCC(N)=O)C(=O)N[C@@H](CCCNC(=N)N)C(=O)N[C@@H](CCC(=O)O)C(=O)N[C@@H](CCC(N)=O)C(=O)N[C@@H](C)C(=O)N[C@@H](CCC(=O)O)C(=O)N[C@H](C(=O)N[C@@H](CC(N)=O)C(=O)NC1(C(=O)N[C@@H](CCC(N)=O)C(=O)N[C@H](C(=O)N[C@@H](CC(C)C)C(=O)N[C@@H](C)C(=O)N[C@@H](CCC(N)=O)C(=O)N[C@H](C(N)=O)C(C)C)[C@@H](C)CC)CCNCC1)[C@@H](C)O)[C@@H](C)CC)[C@@H](C)CC)C(C)C)C(C)C` [compound 227] (Ac-IVLSLD[dV]PIGLK([γGlu-C20 diacid])KILLEQEKQKKQREQAETN[Api]QILAQV-NH2), on human CRF2a receptor, a half-maximal effect (EC50) was put at 0.2 nM. Further, the “Emax (% I)” value at CFR1R receptor was 97 % I.
